Earlier results on one substance are cited in patent US20090253620A1, “METHODS AND COMPOSITIONS FOR TREATING GASTROINTESTINAL RADIOSENSITITIVITY IN A SUBJECT” (WASHINGTON UNIVERSITY IN ST. LOUIS, priority 2005, published 2009).

One series deals with mice. As to conditions: CONV-R wt mice.
For series [1], the system named is intestinal mesenchymal cells. The note with it: CONV-R wt mice.

Fgf-2: fibroblast growth factor-2: in the series on mice, the TBI-associated mortality result is reported as “decreases”. The “TBI-induced intestinal mesenchymal apoptosis” value in series [1] was “attenuates”.
